{"source": "paper PMC7827406", "about": "“Structure–Activity Relationship (SAR) Study of Spautin-1 to Entail the Discovery of Novel NEK4 Inhibitors” (International Journal of Molecular Sciences, 2021)", "assay_in_all_cases": "biochemical", "set-up_in_all_cases": "Eurofins KinaseProfiler full panel at Km ATP, residual kinase activity (%) relative to DMSO", "key": {"[1]": {"target": "T1, PKCβI(h) (Homo sapiens, UniProt P05771)", "T1 construct": "gene PRKCB; isoform beta I", "summary_of_the_method": "(§1)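 Radiometric kinase activity assays were run with ATP at Km and compounds at 10 µM, and remaining activity (%) was reported. A separate competitive binding screen measured DNA-tagged kinase displaced from immobilized active-site ligands by qPCR, giving percent kinase still bound at 10 µM compound in DMSO.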"}, "[2]": {"target": "T2, Rsk1(h) (Homo sapiens, UniProt Q15418)", "T2 construct": "gene RPS6KA1", "summary_of_the_method": "as §1"}, "[3]": {"target": "LIMK1(h) (Homo sapiens, UniProt P53667)", "sequence (P53667 whole entry)": "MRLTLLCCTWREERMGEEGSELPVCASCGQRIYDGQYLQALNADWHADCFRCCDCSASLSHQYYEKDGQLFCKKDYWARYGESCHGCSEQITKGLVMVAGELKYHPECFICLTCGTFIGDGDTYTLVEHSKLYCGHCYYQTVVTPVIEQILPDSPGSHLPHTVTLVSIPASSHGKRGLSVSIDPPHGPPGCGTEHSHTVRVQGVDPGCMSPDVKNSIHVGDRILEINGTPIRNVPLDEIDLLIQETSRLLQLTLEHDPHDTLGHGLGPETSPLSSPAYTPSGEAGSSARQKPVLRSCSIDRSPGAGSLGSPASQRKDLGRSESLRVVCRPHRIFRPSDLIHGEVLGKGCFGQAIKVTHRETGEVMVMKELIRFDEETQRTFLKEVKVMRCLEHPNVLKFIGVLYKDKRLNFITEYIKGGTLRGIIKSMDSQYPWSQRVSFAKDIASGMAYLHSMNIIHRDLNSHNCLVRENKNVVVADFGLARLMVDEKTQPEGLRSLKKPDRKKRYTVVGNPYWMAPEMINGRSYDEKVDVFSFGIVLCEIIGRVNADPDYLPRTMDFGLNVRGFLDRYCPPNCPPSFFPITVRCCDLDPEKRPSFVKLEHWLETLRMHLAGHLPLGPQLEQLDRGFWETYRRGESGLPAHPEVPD", "summary_of_the_method": "as §1"}, "[4]": {"target": "T3, CHK2(R145W)(h) (Homo sapiens, UniProt O96017, R145W)", "T3 construct": "gene CHEK2", "summary_of_the_method": "as §1"}, "[5]": {"target": "Ret(h) (Homo sapiens, UniProt P07949)", "sequence (P07949 whole entry)": "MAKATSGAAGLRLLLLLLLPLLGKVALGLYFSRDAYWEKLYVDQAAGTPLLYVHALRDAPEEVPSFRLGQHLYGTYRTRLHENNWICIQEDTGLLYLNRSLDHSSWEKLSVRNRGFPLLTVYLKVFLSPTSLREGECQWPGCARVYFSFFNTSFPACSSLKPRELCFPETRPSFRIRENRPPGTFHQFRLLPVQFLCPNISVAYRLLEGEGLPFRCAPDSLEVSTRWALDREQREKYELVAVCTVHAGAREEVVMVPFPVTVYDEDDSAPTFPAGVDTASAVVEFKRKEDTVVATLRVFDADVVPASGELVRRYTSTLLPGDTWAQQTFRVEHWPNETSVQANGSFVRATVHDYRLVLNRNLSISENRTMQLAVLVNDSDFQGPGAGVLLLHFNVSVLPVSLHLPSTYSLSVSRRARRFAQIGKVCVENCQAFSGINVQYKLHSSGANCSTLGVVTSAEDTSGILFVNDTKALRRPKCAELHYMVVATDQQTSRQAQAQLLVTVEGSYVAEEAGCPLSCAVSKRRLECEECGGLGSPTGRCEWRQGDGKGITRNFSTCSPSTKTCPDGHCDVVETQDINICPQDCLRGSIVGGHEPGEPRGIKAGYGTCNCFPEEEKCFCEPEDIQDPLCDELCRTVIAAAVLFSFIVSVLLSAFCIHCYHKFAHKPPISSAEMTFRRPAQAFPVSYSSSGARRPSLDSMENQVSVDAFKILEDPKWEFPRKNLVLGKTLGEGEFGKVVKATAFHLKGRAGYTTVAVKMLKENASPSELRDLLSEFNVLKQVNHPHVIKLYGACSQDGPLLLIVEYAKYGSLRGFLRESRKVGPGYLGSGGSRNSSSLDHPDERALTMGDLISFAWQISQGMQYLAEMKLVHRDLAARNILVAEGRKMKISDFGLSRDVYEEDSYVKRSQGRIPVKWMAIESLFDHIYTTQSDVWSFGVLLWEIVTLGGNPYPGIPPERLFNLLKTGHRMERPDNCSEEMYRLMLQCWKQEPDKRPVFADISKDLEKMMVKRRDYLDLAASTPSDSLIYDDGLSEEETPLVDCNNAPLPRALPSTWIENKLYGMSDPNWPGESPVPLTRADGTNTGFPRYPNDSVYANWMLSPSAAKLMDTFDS", "summary_of_the_method": "as §1"}, "[6]": {"target": "Lyn(h) (Homo sapiens, UniProt P07948)", "summary_of_the_method": "as §1"}, "[7]": {"target": "T4, Mnk2(h) (Homo sapiens, UniProt Q9HBH9)", "T4 construct": "gene MKNK2", "T4 sequence (Q9HBH9 whole entry)": "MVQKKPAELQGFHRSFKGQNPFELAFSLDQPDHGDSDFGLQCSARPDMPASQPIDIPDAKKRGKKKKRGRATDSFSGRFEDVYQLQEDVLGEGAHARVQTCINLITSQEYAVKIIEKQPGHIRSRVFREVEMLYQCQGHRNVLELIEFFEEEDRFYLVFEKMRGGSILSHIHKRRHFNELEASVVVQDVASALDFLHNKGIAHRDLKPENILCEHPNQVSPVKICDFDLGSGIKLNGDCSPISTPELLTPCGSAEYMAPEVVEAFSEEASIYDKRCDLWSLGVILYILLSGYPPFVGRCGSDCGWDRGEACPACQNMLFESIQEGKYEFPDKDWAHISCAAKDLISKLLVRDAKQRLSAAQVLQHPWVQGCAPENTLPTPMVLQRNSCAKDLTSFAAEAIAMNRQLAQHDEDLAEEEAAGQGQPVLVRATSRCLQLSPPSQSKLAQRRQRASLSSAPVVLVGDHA", "summary_of_the_method": "as §1"}, "[8]": {"target": "T5, CRIK(h) (Homo sapiens, UniProt O14578)", "T5 construct": "gene CIT", "T5 sequence (O14578 whole entry)": "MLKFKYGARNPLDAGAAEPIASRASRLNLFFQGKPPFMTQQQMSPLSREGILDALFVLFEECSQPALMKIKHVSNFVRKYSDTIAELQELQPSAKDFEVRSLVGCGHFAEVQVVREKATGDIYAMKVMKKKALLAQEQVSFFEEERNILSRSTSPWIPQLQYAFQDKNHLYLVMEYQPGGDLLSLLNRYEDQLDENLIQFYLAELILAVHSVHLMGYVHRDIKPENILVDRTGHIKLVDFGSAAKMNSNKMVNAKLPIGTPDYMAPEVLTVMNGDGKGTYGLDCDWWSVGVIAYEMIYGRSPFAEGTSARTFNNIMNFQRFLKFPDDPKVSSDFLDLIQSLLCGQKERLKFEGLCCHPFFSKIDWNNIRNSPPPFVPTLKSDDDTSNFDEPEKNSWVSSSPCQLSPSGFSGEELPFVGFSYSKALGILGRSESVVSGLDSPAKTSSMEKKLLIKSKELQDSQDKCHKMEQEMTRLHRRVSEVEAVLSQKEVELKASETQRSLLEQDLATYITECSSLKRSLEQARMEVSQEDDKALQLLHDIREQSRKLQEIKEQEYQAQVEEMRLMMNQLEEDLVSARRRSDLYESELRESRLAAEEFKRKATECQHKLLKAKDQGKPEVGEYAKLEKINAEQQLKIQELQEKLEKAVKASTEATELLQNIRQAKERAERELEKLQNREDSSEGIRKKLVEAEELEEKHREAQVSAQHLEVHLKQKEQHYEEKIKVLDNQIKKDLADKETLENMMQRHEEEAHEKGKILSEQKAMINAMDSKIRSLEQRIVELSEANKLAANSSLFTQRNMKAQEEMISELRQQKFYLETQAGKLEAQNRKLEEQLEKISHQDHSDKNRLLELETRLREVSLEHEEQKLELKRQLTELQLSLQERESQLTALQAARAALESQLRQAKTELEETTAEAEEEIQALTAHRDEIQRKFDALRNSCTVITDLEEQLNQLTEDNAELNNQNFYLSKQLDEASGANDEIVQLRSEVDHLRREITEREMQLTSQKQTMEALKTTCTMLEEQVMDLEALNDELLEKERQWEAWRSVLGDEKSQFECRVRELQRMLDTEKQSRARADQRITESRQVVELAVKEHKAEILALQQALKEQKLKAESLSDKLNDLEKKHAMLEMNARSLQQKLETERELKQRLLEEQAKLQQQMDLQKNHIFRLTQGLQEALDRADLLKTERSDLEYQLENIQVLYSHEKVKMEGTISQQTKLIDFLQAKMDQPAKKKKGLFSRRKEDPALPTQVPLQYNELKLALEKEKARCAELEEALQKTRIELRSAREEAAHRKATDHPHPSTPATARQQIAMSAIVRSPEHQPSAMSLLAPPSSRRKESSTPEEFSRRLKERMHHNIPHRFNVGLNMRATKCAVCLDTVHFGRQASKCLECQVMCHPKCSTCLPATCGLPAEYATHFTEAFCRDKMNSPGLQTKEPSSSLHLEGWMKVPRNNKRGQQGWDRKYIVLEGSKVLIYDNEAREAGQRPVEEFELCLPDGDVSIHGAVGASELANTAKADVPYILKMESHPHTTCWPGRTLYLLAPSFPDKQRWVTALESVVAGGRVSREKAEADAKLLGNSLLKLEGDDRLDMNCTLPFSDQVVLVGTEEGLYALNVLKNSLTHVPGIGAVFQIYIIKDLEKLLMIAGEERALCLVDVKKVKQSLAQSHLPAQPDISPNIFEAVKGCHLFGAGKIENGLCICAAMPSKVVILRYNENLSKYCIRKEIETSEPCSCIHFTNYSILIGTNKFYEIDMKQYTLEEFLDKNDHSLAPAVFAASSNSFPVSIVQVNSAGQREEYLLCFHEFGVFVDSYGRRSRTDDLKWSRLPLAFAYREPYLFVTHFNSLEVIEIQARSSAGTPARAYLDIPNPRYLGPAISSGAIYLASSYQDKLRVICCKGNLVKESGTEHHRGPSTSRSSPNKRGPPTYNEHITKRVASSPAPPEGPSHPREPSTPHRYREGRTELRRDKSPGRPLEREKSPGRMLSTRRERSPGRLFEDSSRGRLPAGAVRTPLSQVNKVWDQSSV", "summary_of_the_method": "as §1"}, "[9]": {"target": "IRAK1(h) (Homo sapiens, UniProt P51617)", "sequence (P51617 whole entry)": "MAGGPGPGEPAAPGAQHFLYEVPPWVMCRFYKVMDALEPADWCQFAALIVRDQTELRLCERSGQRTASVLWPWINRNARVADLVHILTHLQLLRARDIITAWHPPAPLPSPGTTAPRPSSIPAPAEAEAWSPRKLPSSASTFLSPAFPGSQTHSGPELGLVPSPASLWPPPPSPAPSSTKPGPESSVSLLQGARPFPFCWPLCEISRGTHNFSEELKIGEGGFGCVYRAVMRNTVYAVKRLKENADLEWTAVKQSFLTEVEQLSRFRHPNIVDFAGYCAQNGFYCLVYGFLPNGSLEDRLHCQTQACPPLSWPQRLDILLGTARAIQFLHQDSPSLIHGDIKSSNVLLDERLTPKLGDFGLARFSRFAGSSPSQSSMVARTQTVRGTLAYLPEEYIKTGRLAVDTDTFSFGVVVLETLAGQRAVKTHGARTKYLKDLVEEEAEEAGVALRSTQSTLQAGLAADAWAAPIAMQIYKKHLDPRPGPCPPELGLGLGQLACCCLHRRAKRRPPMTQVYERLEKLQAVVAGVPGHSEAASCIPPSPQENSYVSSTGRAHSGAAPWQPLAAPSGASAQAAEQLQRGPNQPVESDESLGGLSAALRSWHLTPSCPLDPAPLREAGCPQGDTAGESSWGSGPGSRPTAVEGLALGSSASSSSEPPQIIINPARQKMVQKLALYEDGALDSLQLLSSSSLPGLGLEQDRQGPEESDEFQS", "summary_of_the_method": "as §1"}, "[10]": {"target": "T6, JAK3(h) (Homo sapiens, UniProt P52333)", "T6 sequence (P52333 1-1124)": "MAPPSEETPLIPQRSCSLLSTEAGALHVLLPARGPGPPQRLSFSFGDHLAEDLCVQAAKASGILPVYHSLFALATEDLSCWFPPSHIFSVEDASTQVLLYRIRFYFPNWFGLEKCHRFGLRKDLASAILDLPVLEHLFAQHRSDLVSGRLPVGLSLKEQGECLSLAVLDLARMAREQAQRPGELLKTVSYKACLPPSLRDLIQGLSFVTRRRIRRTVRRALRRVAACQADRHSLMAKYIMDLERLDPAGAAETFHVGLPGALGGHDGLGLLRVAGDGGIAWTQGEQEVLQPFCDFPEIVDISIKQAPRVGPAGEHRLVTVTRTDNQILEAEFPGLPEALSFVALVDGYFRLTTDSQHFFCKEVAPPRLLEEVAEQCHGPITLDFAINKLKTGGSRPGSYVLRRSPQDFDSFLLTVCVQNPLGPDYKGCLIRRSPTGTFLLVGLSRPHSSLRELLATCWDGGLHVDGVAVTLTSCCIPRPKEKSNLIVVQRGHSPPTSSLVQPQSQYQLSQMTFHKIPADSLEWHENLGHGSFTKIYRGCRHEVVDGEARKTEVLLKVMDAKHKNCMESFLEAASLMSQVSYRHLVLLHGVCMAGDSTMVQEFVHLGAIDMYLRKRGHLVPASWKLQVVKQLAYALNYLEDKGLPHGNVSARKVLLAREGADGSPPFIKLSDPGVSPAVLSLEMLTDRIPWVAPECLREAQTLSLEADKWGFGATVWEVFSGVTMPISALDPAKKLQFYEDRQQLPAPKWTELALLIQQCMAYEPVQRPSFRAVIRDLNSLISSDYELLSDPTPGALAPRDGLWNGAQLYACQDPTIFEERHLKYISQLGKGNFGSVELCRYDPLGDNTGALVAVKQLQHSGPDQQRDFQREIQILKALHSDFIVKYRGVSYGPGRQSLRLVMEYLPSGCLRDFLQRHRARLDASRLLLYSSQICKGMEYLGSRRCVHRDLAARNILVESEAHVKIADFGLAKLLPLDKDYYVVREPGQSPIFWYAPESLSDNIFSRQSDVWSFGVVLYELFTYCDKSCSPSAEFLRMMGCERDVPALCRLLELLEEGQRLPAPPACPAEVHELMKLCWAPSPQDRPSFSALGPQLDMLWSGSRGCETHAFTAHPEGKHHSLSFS", "summary_of_the_method": "as §1"}, "[11]": {"conditions": "read-out: Residual activity (%) 5ay"}, "[12]": {"conditions": "read-out: Residual activity (%) Spautin-1 5aa"}, "[13]": {"conditions": "read-out: Residual activity (%) 5at"}, "[14]": {"conditions": "read-out: Residual activity (%) 5as"}}, "note": "Where two headings read alike, the source gives them in different places.", "data": [{"smiles": "COc1ccc2ncnc(Nc3cccc(F)c3)c2c1", "note": "[5ay, N-(3-Fluorophenyl)-6-Methoxy-4-Quinazolinamine]", "values": [{"measurement": "remaining activity at 10 µM", "setting": "[1]; [11]", "value": 86, "unit": "%"}, {"measurement": "remaining activity at 10 µM", "setting": "[2]; [11]", "value": 116, "unit": "%"}, {"measurement": "remaining activity at 10 µM", "setting": "[3]; [11]", "value": 64, "unit": "%"}, {"measurement": "remaining activity at 10 µM", "setting": "[4]; [11]", "value": 87, "unit": "%"}, {"measurement": "remaining activity at 10 µM", "setting": "[5]; [11]", "value": 43, "unit": "%"}, {"measurement": "remaining activity at 10 µM", "setting": "[6]; [11]", "value": 80, "unit": "%"}, {"measurement": "remaining activity at 10 µM", "setting": "[7]; [11]", "value": 19, "unit": "%"}, {"measurement": "remaining activity at 10 µM", "setting": "[8]; [11]", "value": 76, "unit": "%"}, {"measurement": "remaining activity at 10 µM", "setting": "[9]; [11]", "value": 87, "unit": "%"}, {"measurement": "remaining activity at 10 µM", "setting": "[10]; [11]", "value": 91, "unit": "%"}]}, {"smiles": "Fc1ccc(CNc2ncnc3ccc(F)cc23)cc1", "note": "[5aa, 6-Fluoro-N-(4-fluorobenzyl)-4-Quinazolinamine]", "values": [{"measurement": "remaining activity at 10 µM", "setting": "[1]; [12]", "value": 95, "unit": "%"}, {"measurement": "remaining activity at 10 µM", "setting": "[2]; [12]", "value": 102, "unit": "%"}, {"measurement": "remaining activity at 10 µM", "setting": "[3]; [12]", "value": 97, "unit": "%"}, {"measurement": "remaining activity at 10 µM", "setting": "[4]; [12]", "value": 101, "unit": "%"}, {"measurement": "remaining activity at 10 µM", "setting": "[5]; [12]", "value": 69, "unit": "%"}, {"measurement": "remaining activity at 10 µM", "setting": "[6]; [12]", "value": 103, "unit": "%"}, {"measurement": "remaining activity at 10 µM", "setting": "[7]; [12]", "value": 93, "unit": "%"}, {"measurement": "remaining activity at 10 µM", "setting": "[8]; [12]", "value": 90, "unit": "%"}, {"measurement": "remaining activity at 10 µM", "setting": "[9]; [12]", "value": 114, "unit": "%"}, {"measurement": "remaining activity at 10 µM", "setting": "[10]; [12]", "value": 94, "unit": "%"}]}, {"smiles": "Fc1ccc2ncnc(NCCc3ccc(Cl)cc3)c2c1", "note": "[5at, N-[2-(4-Chlorophenyl)Ethyl]-6-Fluoro-4-Quinazolinamine]", "values": [{"measurement": "remaining activity at 10 µM", "setting": "[1]; [13]", "value": 93, "unit": "%"}, {"measurement": "remaining activity at 10 µM", "setting": "[2]; [13]", "value": 103, "unit": "%"}, {"measurement": "remaining activity at 10 µM", "setting": "[3]; [13]", "value": 72, "unit": "%"}, {"measurement": "remaining activity at 10 µM", "setting": "[4]; [13]", "value": 91, "unit": "%"}, {"measurement": "remaining activity at 10 µM", "setting": "[5]; [13]", "value": 62, "unit": "%"}, {"measurement": "remaining activity at 10 µM", "setting": "[6]; [13]", "value": 91, "unit": "%"}, {"measurement": "remaining activity at 10 µM", "setting": "[7]; [13]", "value": 80, "unit": "%"}, {"measurement": "remaining activity at 10 µM", "setting": "[8]; [13]", "value": 89, "unit": "%"}, {"measurement": "remaining activity at 10 µM", "setting": "[9]; [13]", "value": 106, "unit": "%"}, {"measurement": "remaining activity at 10 µM", "setting": "[10]; [13]", "value": 92, "unit": "%"}]}, {"smiles": "Fc1ccc(CCNc2ncnc3ccc(F)cc23)cc1", "note": "[5as, 6-Fluoro-N-[2-(4-Fluorophenyl)Ethyl]-4-Quinazolinamine]", "values": [{"measurement": "remaining activity at 10 µM", "setting": "[1]; [14]", "value": 100, "unit": "%"}, {"measurement": "remaining activity at 10 µM", "setting": "[2]; [14]", "value": 110, "unit": "%"}, {"measurement": "remaining activity at 10 µM", "setting": "[3]; [14]", "value": 76, "unit": "%"}, {"measurement": "remaining activity at 10 µM", "setting": "[4]; [14]", "value": 90, "unit": "%"}, {"measurement": "remaining activity at 10 µM", "setting": "[5]; [14]", "value": 99, "unit": "%"}, {"measurement": "remaining activity at 10 µM", "setting": "[6]; [14]", "value": 89, "unit": "%"}, {"measurement": "remaining activity at 10 µM", "setting": "[7]; [14]", "value": 83, "unit": "%"}, {"measurement": "remaining activity at 10 µM", "setting": "[8]; [14]", "value": 101, "unit": "%"}, {"measurement": "remaining activity at 10 µM", "setting": "[9]; [14]", "value": 87, "unit": "%"}, {"measurement": "remaining activity at 10 µM", "setting": "[10]; [14]", "value": 94, "unit": "%"}]}]}
